Measured values reported in patent US7256201B2, “Selective estrogen receptor-β ligands” (AstraZeneca AB, priority 2000, dated 2007).

Experiments:
[1] = biological target: T1, human recombinant ERβ (Homo sapiens, UniProt Q92731); assay: Fluorescence polarization estrogen receptor (ERFP) binding assay, ERβ; conditions: for Ki: competition with Fluormone ES2, IC50 converted to Ki by Kenakin formula, read-out: FP β-ER Ki; for FP Selectivity: ratio α-ER Ki / β-ER Ki
T1 construct: purchased PanVera (Madison, Wis.)
T1 sequence (Q92731 whole entry): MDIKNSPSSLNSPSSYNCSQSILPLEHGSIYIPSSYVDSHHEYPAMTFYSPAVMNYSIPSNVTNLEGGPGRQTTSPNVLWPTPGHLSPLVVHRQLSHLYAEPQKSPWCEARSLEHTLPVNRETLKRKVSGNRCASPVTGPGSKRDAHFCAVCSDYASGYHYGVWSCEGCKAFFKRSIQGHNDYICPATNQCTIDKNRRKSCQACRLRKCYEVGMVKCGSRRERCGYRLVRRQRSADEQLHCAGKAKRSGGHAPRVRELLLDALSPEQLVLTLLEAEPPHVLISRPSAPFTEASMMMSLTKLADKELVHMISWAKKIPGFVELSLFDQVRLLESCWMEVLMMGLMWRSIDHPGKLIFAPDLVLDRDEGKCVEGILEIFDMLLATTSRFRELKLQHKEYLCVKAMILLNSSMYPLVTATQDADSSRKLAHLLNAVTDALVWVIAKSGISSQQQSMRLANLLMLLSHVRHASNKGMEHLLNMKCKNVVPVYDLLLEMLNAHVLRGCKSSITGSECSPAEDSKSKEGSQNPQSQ
Procedure: (§1) A homogeneous mix-and-measure estrogen receptor (ER) binding assay which utilizes fluorescence polarization (FP) technology is used to identify compounds with affinity for the estrogen receptor. Purchased from PanVera (Madison, Wis.), assay reagents include purified human recombinant ERα, human recombinant ERβ, ES2 screening buffer (100 mM potassium phosphate, pH 7.4, 100 μg/mL bovine gamma globulin), and Fluormone™ ES2.
(§2) For competition binding experiments, dilutions of test compounds are prepared at 2× the final assay concentration in 0.2% DMSO in ES2 Screening buffer on TECAN Genosys, and 25 μL compound/well is dispensed into black Costar ½ volume 96-well plates. Dependent upon a lot specific Kd determination, 10-40 nM ERα or 10-40 nM ERβ and 1 nM Fluormone ES2 are then added to these plates in a final assay volume of 50 μL/well. Plates are gently shaken for at least 5 minutes to mix and incubated for at least 1 hr 45 minutes to achieve equilibrium. (Reaction mixtures are stable for up to 5 hours). After centrifugation to remove air bubbles, plates are read on an LJL Analyst or Acquest equipped with Criterion software at the following settings: Fluorescence Polarization Mode; Static Polarizer on Excitation Side; Dynamic Polarizer on Emission Side; Excitation λ=485×/−5 10 nm; Emission λ=520+/−12.5 nm.
(§3) Polarized fluorescence intensity values are collected and subsequently converted electronically to millipolarization (mp) values. Following data reduction and normalization with Excel and/or Prism software, % Ctrl values at the various test concentrations are used to obtain IC50 values via non-linear regression analysis of a four-parameter logistic equation.
(§4) Because ligand depletion is a consideration in this assay (˜40-60% input ES2 is bound in the assay), IC50 values are converted to Ki values through application of the Kenakin formula, as outlined in the reference below, rather than via the more routinely-used Cheng-Prusoff formula.

[2] = biological target: T2, human recombinant ERα (Homo sapiens, UniProt P03372); assay: Fluorescence polarization estrogen receptor (ERFP) binding assay, ERα; conditions: competition with Fluormone ES2; IC50 converted to Ki by Kenakin formula; read-out: FP α-ER Ki
T2 construct: purchased PanVera (Madison, Wis.)
T2 sequence (P03372 1-595): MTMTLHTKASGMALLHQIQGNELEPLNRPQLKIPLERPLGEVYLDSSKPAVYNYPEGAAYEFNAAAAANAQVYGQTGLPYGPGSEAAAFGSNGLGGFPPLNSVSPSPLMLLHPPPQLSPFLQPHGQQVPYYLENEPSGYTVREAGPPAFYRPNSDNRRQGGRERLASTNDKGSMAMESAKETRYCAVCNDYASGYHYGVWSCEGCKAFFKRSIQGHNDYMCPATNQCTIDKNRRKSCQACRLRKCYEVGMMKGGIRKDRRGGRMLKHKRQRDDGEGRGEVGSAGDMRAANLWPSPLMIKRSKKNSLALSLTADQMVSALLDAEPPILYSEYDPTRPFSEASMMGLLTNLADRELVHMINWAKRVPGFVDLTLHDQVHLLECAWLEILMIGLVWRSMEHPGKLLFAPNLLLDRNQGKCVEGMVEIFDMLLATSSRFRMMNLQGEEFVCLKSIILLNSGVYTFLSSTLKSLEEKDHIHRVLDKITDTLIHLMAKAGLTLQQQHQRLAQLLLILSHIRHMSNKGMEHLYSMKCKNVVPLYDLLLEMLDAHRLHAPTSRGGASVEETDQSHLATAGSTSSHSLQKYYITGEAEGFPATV
Procedure: as §1, §2, §3, §4

[3] = biological target: T3, βER (Homo sapiens, UniProt Q92731); assay: Cell-based assay for ER transcriptional activity (ERE β-gal reporter), βER-transfected 293 cells
T3 construct: expressed in transfected cells; host or cells: 293 cells (Human Embryonic Kidney, ATCC CRL-1573)
T3 sequence (Q92731 54-530 limits assumed): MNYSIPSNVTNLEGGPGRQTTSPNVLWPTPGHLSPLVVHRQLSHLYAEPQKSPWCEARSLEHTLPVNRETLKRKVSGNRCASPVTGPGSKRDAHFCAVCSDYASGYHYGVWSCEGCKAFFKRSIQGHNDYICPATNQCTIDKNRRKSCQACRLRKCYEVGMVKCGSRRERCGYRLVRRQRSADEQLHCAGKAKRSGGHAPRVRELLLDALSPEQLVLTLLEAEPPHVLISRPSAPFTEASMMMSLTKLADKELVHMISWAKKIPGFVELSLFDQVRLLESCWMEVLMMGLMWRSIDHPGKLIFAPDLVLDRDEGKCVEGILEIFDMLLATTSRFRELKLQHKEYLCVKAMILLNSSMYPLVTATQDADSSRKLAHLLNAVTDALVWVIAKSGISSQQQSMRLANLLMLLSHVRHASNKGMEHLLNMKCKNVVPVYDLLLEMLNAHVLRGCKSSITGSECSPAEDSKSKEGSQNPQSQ
Procedure: (§5) ERs are ligand-dependent transcription factors that bind the promoter regions of genes at a consensus DNA sequence called the estrogen responsive element (ERE). The ER agonist or antagonist activity of a drug was determined by measuring the amount of reporter enzyme activity expressed from a plasmid under the control of an estrogen-responsive element when cells transiently transfected with ER and the reporter plasmid were exposed to drug. These experiments were conducted according to the following methods.
(§6) Estrogen Receptors alpha (αER, Gen Bank accession #M12674), and beta (βER, Gen Bank #X99101 were cloned into the expression vector pSG5 (Stratagene). A trimer of the vitellogenin-gene estrogen response element (vitERE) was synthesized as an oligonucleotide and attached to a beta-globin basal promoter in a construct named pERE3 gal. This response element and promoter were removed from pERE3 gal by digestion with the endonucleases SpeI (filled with Klenow fragment) and HindIII. This blunt/Hind III fragment was cloned into the β-galactosidase (β-gal) enhancer reporter plasmid (pBGALenh, Stratagene). αER and βER plasmids were purified using a the Endo Free Maxi Kit (Qiagen), and the DNA concentration and purity (A260/280 ratio) were determined spectrophotometrically (Pharmacia). Only DNA with A260/280 ratio of 1.8 and a concentration of >1 ug/uL was used for transfections.
(§7) All Transfections are performed in 293 cells (Human Embryonic Kidney cells ATCC #CRL-1573). Cells are grown in DMEM supplemented with 10% FBS, glutamine, sodium pyruvate and penicilin/streptomycin. Cells are grown to 70% confluency and split 1:4.
(§8) • 1. 293 cells are split the night before onto collagen I-coated 150 mm tissue-culture plates (Biocoat, Becton Dickinson #354551) at a density of 60-70% in DMEM Mediatech 17-205-CV) 10% charcoal-stripped FBS (biocell #6201-31). Approximately 1×10^7 cells/plate will yield 70% confluency. • 2. The next morning, 1 hour prior to transfection, the media is changed to fresh DMEM 10% FBS stripped and supplements. • 3. Transfections are performed using the Profection Kit (Promega #E1200). This kit is based on the calcium-phosphate-mediated transfection technique. Reagents are added in sterile polystyrene tubes in the following order:
(§9) Solution A • 15 μg αER or βER • 45 μg Reporter (pBGALenh or ERE3) • 1.5 mL Sterile Water • 186 μL CaCl2 • *Mix gently
(§10) Solution B • 1.5 mL 2× Hank's Buffered Salt Solution • 4. Using a vortex set on low, add solution A to solution B dropwise. The resulting solution should become milky in color. It is important to achieve thorough mixing. The solution is allowed to settle for 30 minutes, then vortexed before adding the solution to cells. • 5. Add the mixture to 150 mm plates dropwise. Mix well by rocking plates back and forth and side to side gently. After an hour, a very fine precipitate should be seen floating on and above cells under 20× magnification. If this precipitate is not observed, the transfection will not be effective. Incubate the cells for 12 hours. Receptor Stimulation: • 1. The day after transfection, cells are washed 2× with calcium- and magnesium-free Mg free PBS containing 1 mM EGTA (pH 7.6). Cells are trypsinized for 2 min with 3 mL of trypsin-EDTA. Trypsin is neutralized with DMEM 10% FCS. Cells are pelleted at 1000×g for 5 min. The cell pellet is then resuspended in 5 mL DMEM plus 2% phenol-red-free FCS supplemented with glutamine, pyruvate, and Penn/Strep. • 2. 50 μl of the resulting cell suspension is plated into each well of 96-well tissue culture dishes (Biocoat B&D #354407) using a multi-channel pipettor. The dishes have been previously loaded with 50 μL of DMSO-solubilized test compounds at twice the test concentration in DMEM. Data reported are either n=4 wells (single poke) and n=2 wells (9-point concentration-response curves). • 3. Cells are incubated overnight at 37° C. in the selected compounds. Reporter Assay: • 1. […]

[4] = biological target: T4, αER (Homo sapiens, UniProt P03372); assay: Cell-based assay for ER transcriptional activity (ERE β-gal reporter), αER-transfected 293 cells; conditions: 293 cells transfected with αER and ERE reporter
T4 construct: expressed in transfected cells; host or cells: 293 cells (Human Embryonic Kidney, ATCC CRL-1573)
T4 sequence (P03372 1-595): T2 sequence (P03372 1-595)
Procedure: as §5, §6, §7, §8, §9, §10

SMILES: O=C(c1ccc(O)cc1)N1CCc2ccc(O)cc2C1 [Example 24, (7-Hydroxy-3,4-dihydro-1H-isoquinolin-2-yl)-(4-hydroxy-phenyl)-methanone]
- Ki [1]: 215 nM
- FP Selectivity [1]: 3.1
- Ki [2]: 660 nM

SMILES: Oc1ccc(N2CCc3cc(O)ccc3C2c2ccc(C(F)(F)F)cc2)cc1 (centres unmarked) [Example 9, 2-(4-Hydroxyphenyl)-1-(4-trifluoromethylphenyl)-1,2,3,4-tetrahydroisoquinolin-6-ol]
- Ki [1]: 4.9 nM
- FP Selectivity [1]: 1.6
- Ki [2]: 8 nM

SMILES: O=C(c1ccc(O)cc1)N1CCc2cc(O)ccc2C1 [Example 23, (6-Hydroxy-3,4-dihydro-1H-isoquinolin-2-yl)-(4-hydroxy-phenyl)-methanone]
- Ki [1]: 229 nM
- FP Selectivity [1]: 2.9
- Ki [2]: 660 nM

SMILES: Cc1ccc(O)cc1N1CCc2cc(O)ccc2C1C (centres unmarked) [Example 18, 2-(5-Hydroxy-2-methyl-phenyl)-1-methyl-1,2,3,4-tetrahydro-isoquinolin-6-ol]
- Ki [1]: 4.5 nM
- FP Selectivity [1]: 2.1
- Ki [2]: 9 nM
- EC50 ([3]; 293 cells transfected with βER and ERE reporter): 6.1 nM
- ERE β-ER Max ([3]; 293 cells transfected with βER and ERE reporter, maximal response, unit assumed): 117%
- ERE Selectivity ([3]; ratio α-ER EC50 / β-ER EC50): 4.0
- ERE α-ER Max ([4]; maximal response, unit assumed): 85%
- EC50 ([4]; read-out: ERE α-ER EC50): 24.6 nM

SMILES: Oc1ccc(N2CCc3cc(O)ccc3C2)cc1 [Example 1, 2-(4-Hydroxyphenyl)-1,2,3,4-tetrahydroisoquinoline-6-ol]
- Ki [1]: 375 nM
- FP Selectivity [1]: 2.7
- Ki [2]: 1000 nM

SMILES: O=[N+]([O-])c1cc(O)ccc1N1CCc2cc(O)ccc2C1 [Example 5, 2-(4-Hydroxy-2-nitrophenyl)-1,2,3,4-tetrahydroisoquinolin-6-ol]
- Ki [1]: 13 nM
- FP Selectivity [1]: 4.8
- Ki [2]: 62 nM

SMILES: COc1ccc([N+](=O)[O-])cc1N1CCc2cc(O)ccc2C1 [Example 4, 2-(2-Methoxy-5-nitrophenyl)-1,2,3,4-tetrahydroisoquinolin-6-ol]
- Ki [1]: 459 nM
- FP Selectivity [1]: 1.4
- Ki [2]: 655 nM

SMILES: Cc1ccc(C2c3ccc(O)cc3CCN2c2ccc(O)cc2)c(C)c1 (centres unmarked) [Example 7, 1-(2,4-Dimethylphenyl)-2-(4-hydroxyphenyl)-1,2,3,4-tetrahydroisoquinolin-6-ol]
- Ki [1]: 35 nM
- FP Selectivity [1]: 1.8
- Ki [2]: 62 nM
